Measurements taken from publication PMC3694096, “Development of Novel In Vivo Chemical Probes to Address CNS Protein Kinase Involvement in Synaptic Dysfunction” (PLoS ONE, 2013).
Like-named read-outs stand apart in the source and are kept apart here.

Tests used:
[1] = target: T1, CaMKI (Homo sapiens, UniProt Q14012); test: Kinome profiler screen; assay type: biochemical; conditions: at 20,000 nM inhibitor; kinase activity remaining
T1 construct: purchased Millipore KinaseProfiler

[2] = target: T2, CaMKIIβ (Homo sapiens, UniProt Q13554); test: Kinome profiler screen; assay type: biochemical; conditions: at 20,000 nM inhibitor; kinase activity remaining
T2 construct: purchased Millipore KinaseProfiler

[3] = target: T3, CaMKIIδ (Homo sapiens, UniProt Q13557); test: Kinome profiler screen; assay type: biochemical; conditions: at 20,000 nM inhibitor; kinase activity remaining
T3 construct: purchased Millipore KinaseProfiler

[4] = target: T4, CDK6/cyclinD3 (Homo sapiens, UniProt Q00534); test: Kinome profiler screen; assay type: biochemical; conditions: at 20,000 nM inhibitor; kinase activity remaining
T4 construct: purchased Millipore KinaseProfiler

[5] = target: T5, CK2α2 (Homo sapiens, UniProt P19784); test: Kinome profiler screen; assay type: biochemical
T5 construct: purchased Millipore KinaseProfiler

[6] = target: T6, EGFR(T790M) (Homo sapiens, UniProt P00533, T790M); test: Kinome profiler screen; assay type: biochemical; conditions: at 20,000 nM inhibitor; kinase activity remaining
T6 construct: purchased Millipore KinaseProfiler

[7] = target: T7, EGFR(T790M,L858R) (Homo sapiens, UniProt P00533, L858R/T790M); test: Kinome profiler screen; assay type: biochemical; conditions: at 20,000 nM inhibitor; kinase activity remaining
T7 construct: purchased Millipore KinaseProfiler

[8] = target: T8, Fer (Homo sapiens, UniProt P16591); test: Kinome profiler screen; assay type: biochemical; conditions: at 20,000 nM inhibitor; kinase activity remaining
T8 construct: purchased Millipore KinaseProfiler

[9] = target: T9, FGFR2 (Homo sapiens, UniProt P21802); test: Kinome profiler screen; assay type: biochemical; conditions: at 20,000 nM inhibitor; kinase activity remaining
T9 construct: purchased Millipore KinaseProfiler

[10] = target: T10, FGFR4 (Homo sapiens, UniProt P22455); test: Kinome profiler screen; assay type: biochemical; conditions: at 20,000 nM inhibitor; kinase activity remaining
T10 construct: purchased Millipore KinaseProfiler

[11] = target: T11, Fms (Homo sapiens, UniProt P07333); test: Kinome profiler screen; assay type: biochemical; conditions: at 20,000 nM inhibitor; kinase activity remaining
T11 construct: purchased Millipore KinaseProfiler

[12] = target: T12, HIPK3 (Homo sapiens, UniProt Q9H422); test: Kinome profiler screen; assay type: biochemical; conditions: at 20,000 nM inhibitor; kinase activity remaining
T12 construct: purchased Millipore KinaseProfiler

[13] = target: T13, IKKα (Homo sapiens, UniProt O15111); test: Kinome profiler screen; assay type: biochemical; conditions: at 20,000 nM inhibitor; kinase activity remaining
T13 construct: purchased Millipore KinaseProfiler

[14] = target: JNK3 (Homo sapiens, UniProt P53779); test: Kinome profiler screen; assay type: biochemical; conditions: for activity at 20 µM: at 20,000 nM inhibitor, kinase activity remaining
[15] = target: T14, MARK1 (Homo sapiens, UniProt Q9P0L2); test: Kinome profiler screen; assay type: biochemical; conditions: at 20,000 nM inhibitor; kinase activity remaining
T14 construct: purchased Millipore KinaseProfiler

[16] = target: T15, MLK1 (Homo sapiens, UniProt P80192); test: Kinome profiler screen; assay type: biochemical; conditions: at 20,000 nM inhibitor; kinase activity remaining
T15 construct: purchased Millipore KinaseProfiler

[17] = target: T16, PI3 Kinase (p110δ/p85α)(m) (Mus musculus, UniProt O35904); test: Kinome profiler screen; assay type: biochemical; conditions: at 20,000 nM inhibitor; kinase activity remaining
T16 construct: purchased Millipore KinaseProfiler

[18] = target: T17, PKBγ (Homo sapiens, UniProt Q9Y243); test: Kinome profiler screen; assay type: biochemical; conditions: at 20,000 nM inhibitor; kinase activity remaining
T17 construct: purchased Millipore KinaseProfiler

[19] = target: T18, PKCθ (Homo sapiens, UniProt Q04759); test: Kinome profiler screen; assay type: biochemical; conditions: at 20,000 nM inhibitor; kinase activity remaining
T18 construct: purchased Millipore KinaseProfiler

[20] = target: T19, Plk3 (Homo sapiens, UniProt Q9H4B4); test: Kinome profiler screen; assay type: biochemical; conditions: at 20,000 nM inhibitor; kinase activity remaining
T19 construct: purchased Millipore KinaseProfiler

[21] = target: T20, PrKX (Homo sapiens, UniProt P51817); test: Kinome profiler screen; assay type: biochemical; conditions: at 20,000 nM inhibitor; kinase activity remaining
T20 construct: purchased Millipore KinaseProfiler

[22] = target: T21, PTK5 (Homo sapiens, UniProt P42685); test: Kinome profiler screen; assay type: biochemical; conditions: at 20,000 nM inhibitor; kinase activity remaining
T21 construct: purchased Millipore KinaseProfiler

[23] = target: T22, Pyk2 (Homo sapiens, UniProt Q14289); test: Kinome profiler screen; assay type: biochemical; conditions: at 20,000 nM inhibitor; kinase activity remaining
T22 construct: purchased Millipore KinaseProfiler

[24] = target: T23, Ros (Homo sapiens, UniProt P08922); test: Kinome profiler screen; assay type: biochemical; conditions: at 20,000 nM inhibitor; kinase activity remaining
T23 construct: purchased Millipore KinaseProfiler

[25] = target: T24, Rsk1 (Homo sapiens, UniProt Q15418); test: Kinome profiler screen; assay type: biochemical; conditions: at 20,000 nM inhibitor; kinase activity remaining
T24 construct: purchased Millipore KinaseProfiler

[26] = target: T25, Rsk1(r) (Rattus norvegicus, UniProt Q63531); test: Kinome profiler screen; assay type: biochemical; conditions: at 20,000 nM inhibitor; kinase activity remaining
T25 construct: purchased Millipore KinaseProfiler

[27] = target: T26, STK33 (Homo sapiens, UniProt Q9BYT3); test: Kinome profiler screen; assay type: biochemical; conditions: at 20,000 nM inhibitor; kinase activity remaining
T26 construct: purchased Millipore KinaseProfiler

[28] = target: T27, Tie2 (Homo sapiens, UniProt Q02763); test: Kinome profiler screen; assay type: biochemical; conditions: at 20,000 nM inhibitor; kinase activity remaining
T27 construct: purchased Millipore KinaseProfiler

[29] = target: T28, Tie2(R849W) (Homo sapiens, UniProt Q02763, R849W); test: Kinome profiler screen; assay type: biochemical; conditions: at 20,000 nM inhibitor; kinase activity remaining
T28 construct: purchased Millipore KinaseProfiler

[30] = target: T29, TSSK2 (Homo sapiens, UniProt Q96PF2); test: Kinome profiler screen; assay type: biochemical; conditions: at 20,000 nM inhibitor; kinase activity remaining
T29 construct: purchased Millipore KinaseProfiler

[31] = Dose escalation adverse event screen (SHIRPA based); assay type: in vivo; conditions: highest dose at which no adverse events are observed in dose escalation studies, mice
Description: Novel compounds were screened in vivo using a standard dose escalation screen in mice coupled with clinical observation and testing based on the SHIRPA mouse phenotype assay paradigm. To obtain insight into the potential for off-target activity with the largest known family of small molecule drug targets, G-protein coupled receptors (GPCRs), a cell-based functional screen of the final title compounds was done. The Millipore® GPCR Profiler screen employs the ChemiScreen GPCR stable cell line technology used for real-time calcium flux FLIPR assays on a panel of 158 GPCRs to detect both antagonists and agonists. The NCBI Entrez identifier for each GPCR is provided at the vendor site (www.millipore.com). Follow-up validation of any initial hits as being true positives or negatives was done as described above for protein kinases by testing the concentration dependence of any cellular effects. No validated hits were detected.

[32] = target: T30, NLK (Homo sapiens, UniProt Q9UBE8); test: biochemical
T30 sequence (Q9UBE8 1-527): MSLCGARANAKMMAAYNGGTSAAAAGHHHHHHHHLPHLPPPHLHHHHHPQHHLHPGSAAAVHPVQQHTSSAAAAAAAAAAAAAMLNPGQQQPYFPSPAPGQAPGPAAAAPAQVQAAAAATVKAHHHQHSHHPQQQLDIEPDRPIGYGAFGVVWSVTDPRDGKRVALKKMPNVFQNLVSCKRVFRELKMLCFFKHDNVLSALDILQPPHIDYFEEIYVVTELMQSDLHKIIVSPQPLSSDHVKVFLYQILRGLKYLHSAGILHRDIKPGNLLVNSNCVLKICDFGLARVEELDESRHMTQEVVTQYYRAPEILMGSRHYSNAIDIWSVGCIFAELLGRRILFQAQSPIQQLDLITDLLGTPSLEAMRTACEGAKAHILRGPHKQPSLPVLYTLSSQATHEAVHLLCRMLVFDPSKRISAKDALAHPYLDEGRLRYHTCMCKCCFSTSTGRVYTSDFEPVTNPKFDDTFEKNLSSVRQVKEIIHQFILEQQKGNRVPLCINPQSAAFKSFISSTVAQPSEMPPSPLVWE

Sequence of JNK3 (P53779 whole entry): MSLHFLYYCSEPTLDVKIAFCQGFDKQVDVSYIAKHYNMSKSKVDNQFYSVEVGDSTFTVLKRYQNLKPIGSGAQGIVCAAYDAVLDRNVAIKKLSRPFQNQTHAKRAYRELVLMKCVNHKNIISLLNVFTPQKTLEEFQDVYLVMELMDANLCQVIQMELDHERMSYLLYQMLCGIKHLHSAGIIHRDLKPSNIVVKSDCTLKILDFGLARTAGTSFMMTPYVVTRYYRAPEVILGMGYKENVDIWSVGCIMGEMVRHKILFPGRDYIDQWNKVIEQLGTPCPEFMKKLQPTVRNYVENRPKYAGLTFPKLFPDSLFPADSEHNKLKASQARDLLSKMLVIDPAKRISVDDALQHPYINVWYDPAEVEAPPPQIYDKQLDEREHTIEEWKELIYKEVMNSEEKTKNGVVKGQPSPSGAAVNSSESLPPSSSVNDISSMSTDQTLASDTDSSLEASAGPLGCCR
T17 sequence (Q9Y243 whole entry): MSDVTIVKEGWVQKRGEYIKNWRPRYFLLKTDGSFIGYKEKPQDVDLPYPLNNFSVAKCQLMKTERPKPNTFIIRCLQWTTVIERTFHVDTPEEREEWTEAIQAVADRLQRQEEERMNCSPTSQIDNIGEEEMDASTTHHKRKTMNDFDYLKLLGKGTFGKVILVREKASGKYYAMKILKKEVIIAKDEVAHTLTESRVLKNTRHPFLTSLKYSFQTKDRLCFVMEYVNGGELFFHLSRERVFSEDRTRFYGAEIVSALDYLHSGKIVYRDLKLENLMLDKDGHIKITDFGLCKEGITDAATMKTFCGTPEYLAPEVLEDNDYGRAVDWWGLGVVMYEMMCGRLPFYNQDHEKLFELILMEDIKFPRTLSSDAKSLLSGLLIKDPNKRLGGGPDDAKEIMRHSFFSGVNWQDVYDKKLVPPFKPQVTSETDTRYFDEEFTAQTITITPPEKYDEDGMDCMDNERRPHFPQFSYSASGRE
T24 sequence (Q15418 whole entry): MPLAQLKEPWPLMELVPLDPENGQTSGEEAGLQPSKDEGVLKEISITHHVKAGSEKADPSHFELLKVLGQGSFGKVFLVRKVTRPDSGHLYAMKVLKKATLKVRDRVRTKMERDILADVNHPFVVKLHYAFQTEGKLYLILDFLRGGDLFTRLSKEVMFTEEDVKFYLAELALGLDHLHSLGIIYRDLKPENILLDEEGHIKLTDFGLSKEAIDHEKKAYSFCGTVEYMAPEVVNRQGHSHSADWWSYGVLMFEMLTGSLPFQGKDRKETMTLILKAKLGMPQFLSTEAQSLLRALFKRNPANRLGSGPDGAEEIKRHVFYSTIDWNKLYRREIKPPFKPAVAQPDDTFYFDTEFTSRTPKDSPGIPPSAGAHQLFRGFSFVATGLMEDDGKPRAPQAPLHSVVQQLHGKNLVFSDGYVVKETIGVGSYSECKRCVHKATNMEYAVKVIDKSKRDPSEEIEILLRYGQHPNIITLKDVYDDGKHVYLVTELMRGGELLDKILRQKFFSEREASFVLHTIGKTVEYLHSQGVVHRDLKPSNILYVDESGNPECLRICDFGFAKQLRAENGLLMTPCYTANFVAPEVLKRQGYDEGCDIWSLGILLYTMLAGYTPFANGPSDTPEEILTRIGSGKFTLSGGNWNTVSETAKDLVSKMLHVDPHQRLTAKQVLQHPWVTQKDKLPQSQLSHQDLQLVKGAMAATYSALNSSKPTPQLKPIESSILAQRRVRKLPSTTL
T14 sequence (Q9P0L2 whole entry): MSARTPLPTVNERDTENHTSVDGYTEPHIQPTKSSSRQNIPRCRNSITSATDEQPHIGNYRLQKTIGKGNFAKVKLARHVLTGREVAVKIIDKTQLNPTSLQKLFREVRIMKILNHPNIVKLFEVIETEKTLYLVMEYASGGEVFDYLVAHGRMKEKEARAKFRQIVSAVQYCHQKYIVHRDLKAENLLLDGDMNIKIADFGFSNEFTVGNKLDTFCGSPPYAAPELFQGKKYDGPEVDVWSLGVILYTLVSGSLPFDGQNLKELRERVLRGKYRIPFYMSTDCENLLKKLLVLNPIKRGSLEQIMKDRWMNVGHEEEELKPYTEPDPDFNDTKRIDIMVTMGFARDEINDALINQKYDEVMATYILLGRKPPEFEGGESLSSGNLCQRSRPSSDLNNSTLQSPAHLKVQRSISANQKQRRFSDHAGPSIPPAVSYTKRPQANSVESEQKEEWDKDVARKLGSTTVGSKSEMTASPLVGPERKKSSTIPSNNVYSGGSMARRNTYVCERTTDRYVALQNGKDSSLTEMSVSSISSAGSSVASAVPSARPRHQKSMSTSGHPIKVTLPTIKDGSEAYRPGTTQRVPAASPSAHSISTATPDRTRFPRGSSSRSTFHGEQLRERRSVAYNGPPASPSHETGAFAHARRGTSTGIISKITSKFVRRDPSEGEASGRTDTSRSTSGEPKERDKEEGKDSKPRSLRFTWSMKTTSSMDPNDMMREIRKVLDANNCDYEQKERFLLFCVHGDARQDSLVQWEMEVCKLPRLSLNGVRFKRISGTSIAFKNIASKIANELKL
T11 sequence (P07333 20-972): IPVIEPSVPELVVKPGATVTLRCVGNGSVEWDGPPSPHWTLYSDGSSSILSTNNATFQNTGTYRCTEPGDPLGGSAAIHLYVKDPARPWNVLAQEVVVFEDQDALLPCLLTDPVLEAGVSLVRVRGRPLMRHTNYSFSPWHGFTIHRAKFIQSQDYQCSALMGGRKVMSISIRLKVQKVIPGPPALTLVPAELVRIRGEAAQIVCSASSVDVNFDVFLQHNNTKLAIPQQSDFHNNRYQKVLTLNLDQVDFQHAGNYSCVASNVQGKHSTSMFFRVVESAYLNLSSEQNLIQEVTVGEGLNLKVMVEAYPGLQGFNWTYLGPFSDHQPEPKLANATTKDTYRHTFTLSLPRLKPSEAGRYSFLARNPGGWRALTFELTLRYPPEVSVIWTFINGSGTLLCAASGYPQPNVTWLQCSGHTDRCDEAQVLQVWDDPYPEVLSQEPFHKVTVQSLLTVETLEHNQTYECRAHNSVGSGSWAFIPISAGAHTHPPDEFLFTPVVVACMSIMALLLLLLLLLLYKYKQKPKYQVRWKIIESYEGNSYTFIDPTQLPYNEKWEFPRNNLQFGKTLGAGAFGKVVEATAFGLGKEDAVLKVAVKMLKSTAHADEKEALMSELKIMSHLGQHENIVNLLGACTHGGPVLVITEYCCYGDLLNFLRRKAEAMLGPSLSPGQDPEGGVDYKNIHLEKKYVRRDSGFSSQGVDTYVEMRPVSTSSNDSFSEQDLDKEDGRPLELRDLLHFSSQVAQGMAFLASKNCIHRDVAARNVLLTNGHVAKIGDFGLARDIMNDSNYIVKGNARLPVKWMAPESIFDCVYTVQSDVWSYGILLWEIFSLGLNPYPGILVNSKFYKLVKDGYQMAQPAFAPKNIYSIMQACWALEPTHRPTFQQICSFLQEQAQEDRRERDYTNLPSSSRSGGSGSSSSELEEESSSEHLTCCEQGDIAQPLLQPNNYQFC
T19 sequence (Q9H4B4 whole entry): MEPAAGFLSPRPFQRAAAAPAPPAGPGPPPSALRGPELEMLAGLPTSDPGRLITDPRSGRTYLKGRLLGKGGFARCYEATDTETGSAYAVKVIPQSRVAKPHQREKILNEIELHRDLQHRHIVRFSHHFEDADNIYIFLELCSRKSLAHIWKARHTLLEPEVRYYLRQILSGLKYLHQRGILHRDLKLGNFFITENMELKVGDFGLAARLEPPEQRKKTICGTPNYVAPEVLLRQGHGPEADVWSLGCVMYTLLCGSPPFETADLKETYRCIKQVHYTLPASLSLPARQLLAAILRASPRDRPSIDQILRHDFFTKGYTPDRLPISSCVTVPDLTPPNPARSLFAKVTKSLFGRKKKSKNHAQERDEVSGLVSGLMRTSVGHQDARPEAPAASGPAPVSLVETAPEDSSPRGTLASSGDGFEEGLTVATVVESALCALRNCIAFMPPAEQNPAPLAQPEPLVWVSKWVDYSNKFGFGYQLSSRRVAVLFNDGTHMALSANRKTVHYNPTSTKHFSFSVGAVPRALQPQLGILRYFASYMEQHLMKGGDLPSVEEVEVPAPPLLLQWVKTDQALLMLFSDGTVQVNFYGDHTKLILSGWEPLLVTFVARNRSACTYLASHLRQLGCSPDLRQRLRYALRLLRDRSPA
T2 sequence (Q13554 whole entry): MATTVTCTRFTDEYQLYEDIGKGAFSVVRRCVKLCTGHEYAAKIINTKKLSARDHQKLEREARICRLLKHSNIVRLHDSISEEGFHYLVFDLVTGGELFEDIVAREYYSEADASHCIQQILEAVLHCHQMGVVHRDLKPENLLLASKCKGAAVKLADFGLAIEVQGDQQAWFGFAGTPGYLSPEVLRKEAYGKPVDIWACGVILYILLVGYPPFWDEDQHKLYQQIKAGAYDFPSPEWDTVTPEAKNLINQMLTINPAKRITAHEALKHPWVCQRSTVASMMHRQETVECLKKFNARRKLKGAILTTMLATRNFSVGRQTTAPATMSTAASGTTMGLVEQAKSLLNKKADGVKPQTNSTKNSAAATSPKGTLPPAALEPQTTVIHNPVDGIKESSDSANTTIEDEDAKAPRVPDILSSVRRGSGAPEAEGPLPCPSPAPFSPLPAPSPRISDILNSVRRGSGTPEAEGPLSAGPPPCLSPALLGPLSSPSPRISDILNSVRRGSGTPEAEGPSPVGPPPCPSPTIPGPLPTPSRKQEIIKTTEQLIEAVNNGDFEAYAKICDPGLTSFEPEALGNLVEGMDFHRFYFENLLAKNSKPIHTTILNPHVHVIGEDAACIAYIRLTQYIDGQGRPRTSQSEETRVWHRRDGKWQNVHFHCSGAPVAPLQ

| Compound | activity at 20 µM [1] | activity at 20 µM [2] | activity at 20 µM [3] | activity at 20 µM [4] | activity at 20 µM [6] | activity at 20 µM [7] | activity at 20 µM [8] | activity at 20 µM [9] | activity at 20 µM [10] | activity at 20 µM [11] | activity at 20 µM [12] | activity at 20 µM [13] | activity at 20 µM [14] | activity at 20 µM [15] | activity at 20 µM [16] | activity at 20 µM [17] | activity at 20 µM [18] | activity at 20 µM [19] | activity at 20 µM [20] | activity at 20 µM [21] | further results |
| --- | --- | --- | --- | --- | --- | --- | --- | --- | --- | --- | --- | --- | --- | --- | --- | --- | --- | --- | --- | --- | --- |
| CN(C)c1cc(-c2ccncc2)c(-c2ccc3ccccc3c2)nn1 [MW108, N, N-dimethyl-6-(naphthalen-2-yl)-5-(pyridin-4-yl)pyridazin-3-amine] | 101% | 96% | 100% | 85% | 68% | 40% | 97% | 101% | 89% | 98% | 104% | 105% | 5% | 113% | 98% | 100% | 92% | 107% | 103% | 109% | activity at 20 µM [5]: 114%; IC50 [14]: 1260 nM; activity at 20 µM [22]: 80%; activity at 20 µM [23]: 106%; activity at 20 µM [24]: 87%; activity at 20 µM [25]: 93%; activity at 20 µM [26]: 91%; activity at 20 µM [27]: 106%; activity at 20 µM [28]: 81%; activity at 20 µM [29]: 77%; activity at 20 µM [30]: 101%; Dose Escalating Adverse Event Screen / Adverse Pharm Dose [31]: ≥ 200 mg/kg; Dose Escalating Adverse Event Screen / Adverse Pharm Dose ([31]; listed as MW01-11-108SRM): > 200 mg/kg; IC50 [32]: 1210 nM; activity at 20 µM [32]: 20% |
| CN(C)c1cc(-c2ccncc2)c(-c2cccc3ccccc23)nn1 [MW181, N,N-dimethyl-6-(naphthalen-1-yl)-5-(pyridin-4-yl)pyridazin-3-amine] | 101% | 108% | 106% | 103% | 105% | 80% | 92% | 98% | 98% | 85% | 95% | 112% | 12% | 102% | 95% | 101% | 100% | 98% | 92% | 108% | activity at 20 µM ([5]; at 20,000 nM inhibitor, kinase activity remaining, read-out: % Activity): 99%; IC50 ([14]; concentration-dependent follow-up of profiler hit, read-out: IC50): 2400 nM; activity at 20 µM [22]: 90%; activity at 20 µM [23]: 101%; activity at 20 µM [24]: 110%; activity at 20 µM [25]: 98%; activity at 20 µM [26]: 93%; activity at 20 µM [27]: 99%; activity at 20 µM [28]: 99%; activity at 20 µM [29]: 99%; activity at 20 µM [30]: 107%; Dose Escalating Adverse Event Screen / Adverse Pharm Dose [31]: ≥ 200 mg/kg; Dose Escalating Adverse Event Screen / Adverse Pharm Dose ([31]; listed as MW01-10-181SRM): > 200 mg/kg; IC50 [32]: 206 nM |
